Data as given in patent publication US9663543B2 (priority 2014, dated 2017).

Biological target: Human factor D (Homo sapiens (Human), UniProt P00746)
Format: biochemical

Chain of Human factor D (P00746 26-253 limits assumed): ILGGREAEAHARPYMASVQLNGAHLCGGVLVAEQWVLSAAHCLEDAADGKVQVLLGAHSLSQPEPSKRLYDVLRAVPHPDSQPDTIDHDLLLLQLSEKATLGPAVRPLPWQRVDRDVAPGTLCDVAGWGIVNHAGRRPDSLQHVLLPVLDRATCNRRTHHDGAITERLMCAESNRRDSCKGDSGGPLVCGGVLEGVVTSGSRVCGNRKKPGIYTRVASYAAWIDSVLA

| Structure (SMILES) | IC50 |
| --- | --- |
| CCOP(=O)(OCC)c1ccc2c(C(C)=O)cn(CC(=O)N3C[C@H](F)C[C@H]3C(=O)NCc3cccc(Cl)c3F)c2c1 [Compound 1, diethyl 3-acetyl-1-(2-((2S,4R)-2-(3-chloro-2-fluorobenzylcarbamoyl)-4-fluoropyrrolidin-1-yl)-2-oxoethyl)-1H-indol-6-ylphosphonate] | < 1 µM |
| CCOP(=O)(O)c1ccc2c(C(C)=O)cn(CC(=O)N3C[C@H](F)C[C@H]3C(=O)NCc3cccc(Cl)c3F)c2c1 [Compound 2, ethyl hydrogen 3-acetyl-1-(2-((2S,4R)-2-(3-chloro-2-fluorobenzylcarbamoyl)-4-fluoropyrrolidin-1-yl)-2-oxoethyl)-1H-indol-6-ylphosphonate] | < 1 µM |
| CC(=O)c1cn(CC(=O)N2C[C@H](F)C[C@H]2C(=O)NCc2cccc(Cl)c2F)c2cc(P(=O)(O)O)ccc12 [Compound 3, 3-acetyl-1-(2-((2S,4R)-2-(3-chloro-2-fluorobenzylcarbamoyl)-4-fluoropyrrolidin-1-yl)-2-oxoethyl)-1H-indol-6-ylphosphonic acid] | < 1 µM |
| CC(=O)c1cn(CC(=O)N2C[C@H](F)C[C@H]2C(=O)NCc2cccc(Cl)c2F)c2cc(P(=O)(OCOC(=O)OC(C)C)OCOC(=O)OC(C)C)ccc12 [Compound 4, ((3-acetyl-1-(2-((2S,4R)-2-(3-chloro-2-fluorobenzylcarbamoyl)-4-fluoropyrrolidin-1-yl)-2-oxoethyl)-1H-indol-6-yl)phosphoryl)bis(oxy)bis (methylene) isopropyl dicarbonate] | < 1 µM |
| CCOP(=O)(OCOC(=O)OC(C)C)c1ccc2c(C(C)=O)cn(CC(=O)N3C[C@H](F)C[C@H]3C(=O)NCc3cccc(Cl)c3F)c2c1 (stereo partly drawn) [Compound 6, ((3-acetyl-1-(2-((2S,4R)-2-(3-chloro-2-fluorobenzylcarbamoyl)-4-fluoropyrrolidin-1-yl)-2-oxoethyl)-1H-indol-6-yl)(ethoxy)phosphoryloxy) methyl isopropyl carbonate] | < 1 µM |
| CC(=O)c1cn(CC(=O)N2[C@@H]3CCC[C@@H]3C[C@H]2C(=O)NCc2cccc(Cl)c2F)c2cc(P(=O)(O)O)ccc12 [Compound 7, 3-acetyl-1-(2-((2S,3aR,6aR)-2-(3-chloro-2-fluorobenzylcarbamoyl)hexa-hydrocyclopenta[b]pyrrol-1(2H)-yl)-2-oxoethyl)-1H-indol-6-ylphosphonic acid] | < 1 µM |
| CCOP(=O)(OCC)c1ccc2c(c1)c(C(C)=O)cn2CC(=O)N1C[C@H](F)C[C@H]1C(=O)NCc1cccc(Cl)c1F [Compound 8, diethyl 3-acetyl-1-(2-((2S,4R)-2-(3-chloro-2-fluorobenzylcarbamoyl)-4-fluoropyrrolidin-1-yl)-2-oxoethyl)-1H-indol-5-ylphosphonate] | < 1 µM |
| CCOP(=O)(O)c1ccc2c(c1)c(C(C)=O)cn2CC(=O)N1C[C@H](F)C[C@H]1C(=O)NCc1cccc(Cl)c1F [Compound 9, ethyl hydrogen 3-acetyl-1-(2-((2S,4R)-2-(3-chloro-2-fluorobenzylcarbamoyl)-4-fluoropyrrolidin-1-yl)-2-oxoethyl)-1H-indol-5-ylphosphonate] | > 10 µM |
| CC(=O)c1cn(CC(=O)N2C[C@H](F)C[C@H]2C(=O)NCc2cccc(Cl)c2F)c2ccc(P(=O)(O)O)cc12 [Compound 10, 3-acetyl-1-(2-((2S,4R)-2-(3-chloro-2-fluorobenzylcarbamoyl)-4-fluoropyrrolidin-1-yl)-2-oxoethyl)-1H-indol-5-ylphosphonic acid] | < 1 µM |
| CCOC(=O)c1nn(CC(=O)N2C[C@H](F)C[C@H]2C(=O)NCc2cccc(Cl)c2F)c2cc(P(=O)(OCC)OCC)ccc12 [Compound 11, ethyl 1-(2-((2S,4R)-2-(3-chloro-2-fluorobenzylcarbamoyl)-4-fluoropyrrolidin-1-yl)-2-oxoethyl)-6-(diethoxyphosphoryl)-1H-indazole-3-carboxylate] | > 10 µM |
| CCOP(=O)(OCC)c1ccc2c(C(=O)O)nn(CC(=O)N3C[C@H](F)C[C@H]3C(=O)NCc3cccc(Cl)c3F)c2c1 [Compound 12, 1-(2-((2S,4R)-2-(3-chloro-2-fluorobenzylcarbamoyl)-4-fluoropyrrolidin-1-yl)-2-oxoethyl)-6-(diethoxyphosphoryl)-1H-indazole-3-carboxylic acid] | > 10 µM |
| CCOP(=O)(OCC)c1ccc2c(C(=O)OC)cn(CC(=O)N3C[C@H](F)C[C@H]3C(=O)NCc3cccc(Cl)c3F)c2c1 [Compound 13, methyl 1-(2-((2S,4R)-2-(3-chloro-2-fluorobenzylcarbamoyl)-4-fluoropyrrolidin-1-yl)-2-oxoethyl)-6-(diethoxyphosphoryl)-1H-indole-3-carboxylate] | < 1 µM |
| COC(=O)c1cn(CC(=O)N2C[C@H](F)C[C@H]2C(=O)NCc2cccc(Cl)c2F)c2cc(P(=O)(O)O)ccc12 [Compound 14, 1-(2-((2S,4R)-2-(3-chloro-2-fluorobenzylcarbamoyl)-4-fluoropyrrolidin-1-yl)-2-oxoethyl)-3-(methoxycarbonyl)-1H-indol-6-ylphosphonic acid] | < 1 µM |
| CCOP(=O)(OCC)c1ccc2c(C(N)=O)cn(CC(=O)N3C[C@H](F)C[C@H]3C(=O)NCc3cccc(Cl)c3F)c2c1 [Compound 15, diethyl 3-carbamoyl-1-(2-((2S,4R)-2-(3-chloro-2-fluorobenzylcarbamoyl)-4-fluoropyrrolidin-1-yl)-2-oxoethyl)-1H-indol-6-ylphosphonate] | < 1 µM |
| NC(=O)c1cn(CC(=O)N2C[C@H](F)C[C@H]2C(=O)NCc2cccc(Cl)c2F)c2cc(P(=O)(O)O)ccc12 [Compound 16, 3-carbamoyl-1-(2-((2S,4R)-2-(3-chloro-2-fluorobenzylcarbamoyl)-4-fluoropyrrolidin-1-yl)-2-oxoethyl)-1H-indol-6-ylphosphonic acid] | < 1 µM |
| CCOP(=O)(OCC)c1ccc2c(C(N)=O)nn(CC(=O)N3C[C@H](F)C[C@H]3C(=O)NCc3cccc(Cl)c3F)c2c1 [Compound 17, diethyl 3-carbamoyl-1-(2-((2S,4R)-2-(3-chloro-2-fluorobenzylcarbamoyl)-4-fluoropyrrolidin-1-yl)-2-oxoethyl)-1H-indazol-6-ylphosphonate] | < 1 µM |
| NC(=O)c1nn(CC(=O)N2C[C@H](F)C[C@H]2C(=O)NCc2cccc(Cl)c2F)c2cc(P(=O)(O)O)ccc12 [Compound 18, 3-carbamoyl-1-(2-((2S,4R)-2-(3-chloro-2-fluorobenzylcarbamoyl)-4-fluoropyrrolidin-1-yl)-2-oxoethyl)-1H-indazol-6-ylphosphonic acid] | < 1 µM |
| CC(=O)c1cn(CC(=O)N2C[C@H](F)C[C@H]2C(=O)NCc2cccc(Cl)c2F)c2cc(P(=O)(OCC(F)(F)F)OCC(F)(F)F)ccc12 [Compound 19, bis(2,2,2-trifluoroethyl) 3-acetyl-1-(2-((2S,4R)-2-(3-chloro-2-fluorobenzylcarbamoyl)-4-fluoropyrrolidin-1-yl)-2-oxoethyl)-1H-indol-6-ylphosphonate] | < 1 µM |
| CCCCOP(=O)(OCCCC)c1ccc2c(C(C)=O)cn(CC(=O)N3C[C@H](F)C[C@H]3C(=O)NCc3cccc(Cl)c3F)c2c1 [Compound 20, dibutyl 3-acetyl-1-(2-((2S,4R)-2-(3-chloro-2-fluorobenzylcarbamoyl)-4-fluoropyrrolidin-1-yl)-2-oxoethyl)-1H-indol-6-ylphosphonate] | < 1 µM |
| CCCCOP(=O)(O)c1ccc2c(C(C)=O)cn(CC(=O)N3C[C@H](F)C[C@H]3C(=O)NCc3cccc(Cl)c3F)c2c1 [Compound 21, butyl hydrogen 3-acetyl-1-(2-((2S,4R)-2-(3-chloro-2-fluorobenzylcarbamoyl)-4-fluoropyrrolidin-1-yl)-2-oxoethyl)-1H-indol-6-ylphosphonate] | < 1 µM |
| CC(=O)c1cn(CC(=O)N2C[C@H](F)C[C@H]2C(=O)NCc2cccc(Cl)c2F)c2cc(P(=O)(O)OCOC(=O)OC(C)C)ccc12 [Compound 22, ((3-acetyl-1-(2-((2S,4R)-2-(3-chloro-2-fluorobenzylcarbamoyl)-4-fluoropyrrolidin-1-yl)-2-oxoethyl)-1H-indol-6-yl)(hydroxy)phosphoryloxy) methyl isopropyl carbonate] | < 1 µM |
| CCOP(=O)(c1ccccc1)c1ccc2c(C(C)=O)cn(CC(=O)N3C[C@H](F)C[C@H]3C(=O)NCc3cccc(Cl)c3F)c2c1 (stereo partly drawn) [Compound 23, ethyl 3-acetyl-1-(2-((2S,4R)-2-(3-chloro-2-fluorobenzylcarbamoyl)-4-fluoropyrrolidin-1-yl)-2-oxoethyl)-1H-indol-6-yl(phenyl)phosphinate] | < 1 µM |
| CCOP(=O)(CC)c1ccc2c(C(C)=O)cn(CC(=O)N3C[C@H](F)C[C@H]3C(=O)NCc3cccc(Cl)c3F)c2c1 (stereo partly drawn) [Compound 24, ethyl 3-acetyl-1-(2-((2S,4R)-2-(3-chloro-2-fluorobenzylcarbamoyl)-4-fluoropyrrolidin-1-yl)-2-oxoethyl)-1H-indol-6-yl(ethyl)phosphinate] | < 1 µM |
| CC(=O)c1cn(CC(=O)N2C[C@H](F)C[C@H]2C(=O)NCc2cccc(Cl)c2F)c2cc(P(=O)(O)c3ccccc3)ccc12 [Compound 25, 3-acetyl-1-(2-((2S,4R)-2-(3-chloro-2-fluorobenzylcarbamoyl)-4-fluoropyrrolidin-1-yl)-2-oxoethyl)-1H-indol-6-yl(phenyl)phosphinic acid] | < 1 µM |
| CC(=O)c1cn(CC(=O)N2C[C@H](F)C[C@H]2C(=O)NCc2cccc(Cl)c2F)c2cc(P(=O)(OCOC(=O)C(C)(C)C)OCOC(=O)C(C)(C)C)ccc12 [Compound 26, ((3-acetyl-1-(2-((2S,4R)-2-(3-chloro-2-fluorobenzylcarbamoyl)-4-fluoropyrrolidin-1-yl)-2-oxoethyl)-1H-indol-6-yl)phosphoryl)bis(oxy)bis (methylene) bis(2,2-dimethylpropanoate)] | < 1 µM |
| CCP(=O)(O)c1ccc2c(C(C)=O)cn(CC(=O)N3C[C@H](F)C[C@H]3C(=O)NCc3cccc(Cl)c3F)c2c1 [Compound 27, 3-acetyl-1-(2-((2S,4R)-2-(3-chloro-2-fluorobenzylcarbamoyl)-4-fluoropyrrolidin-1-yl)-2-oxoethyl)-1H-indol-6-yl(ethyl)phosphinic acid] | < 1 µM |
